Measured values published in the supplement of paper PMC10307832.

Tests used:
Assay in all cases: relative viability (nuclei count vs DMSO), 5 days (fraction); higher = more cells survive
Axitinib + Lapatinib = compound: CNC(=O)c1ccccc1Sc1ccc2c(/C=C/c3ccccn3)n[nH]c2c1 [Axitinib] + CS(=O)(=O)CCNCc1ccc(-c2ccc3ncnc(Nc4ccc(OCc5cccc(F)c5)c(Cl)c4)c3c2)o1 [Lapatinib] (partner 2 µM)
Summary of the method: (§1)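 Lung cancer cell lines in 1536-well plates got either a single drug or a fixed anchor-drug dose together with five library-drug doses (not always all listed) in √10 steps, by pin tool, on the day after seeding. Nuclei were counted after 5 days, and relative viability is the treated-to-vehicle ratio of nuclei counts. Values are medians of duplicate plates.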

Axitinib + Olaparib = compound: CNC(=O)c1ccccc1Sc1ccc2c(/C=C/c3ccccn3)n[nH]c2c1 [Axitinib] + O=C(c1cc(Cc2n[nH]c(=O)c3ccccc23)ccc1F)N1CCN(C(=O)C2CC2)CC1 [Olaparib] (partner 8 µM)
Summary of the method: as §1

[1] = compound: CC1=CC=C(C=C1)C(=O)CN2C3=C(CCCC3)SC2=N [Pifithrin_alpha] + CC(=O)c1c(C)c2cnc(Nc3ccc(N4CCNCC4)cn3)nc2n(C2CCCC2)c1=O [Palbociclib] (partner 0.5 µM)
Summary of the method: as §1

[2] = compound: CC1=CC=C(C=C1)C(=O)CN2C3=C(CCCC3)SC2=N [Pifithrin_alpha] + CS(=O)(=O)N1CCN(Cc2cc3nc(-c4cccc5[nH]ncc45)nc(N4CCOCC4)c3s2)CC1 [Pictilisib] (partner 1 µM)
Summary of the method: as §1

| Cell Line | relative viability (Axitinib + Lapatinib; first compound 0.005 µM) | relative viability (Axitinib + Lapatinib; first compound 0.01581 µM) | relative viability (Axitinib + Lapatinib; first compound 0.05 µM) | relative viability (Axitinib + Lapatinib; first compound 0.1581 µM) | relative viability (Axitinib + Lapatinib; first compound 0.5 µM) | relative viability (Axitinib + Olaparib; first compound 0.005 µM) | relative viability (Axitinib + Olaparib; first compound 0.01581 µM) | relative viability (Axitinib + Olaparib; first compound 0.05 µM) | relative viability (Axitinib + Olaparib; first compound 0.1581 µM) | relative viability (Axitinib + Olaparib; first compound 0.5 µM) | relative viability ([1]; first compound 3.162 µM) | relative viability ([1]; first compound 10 µM) | relative viability ([1]; first compound 100 µM) | relative viability ([2]; first compound 3.162 µM) | relative viability ([2]; first compound 10 µM) | relative viability ([2]; first compound 31.62 µM) | relative viability ([2]; first compound 100 µM) | relative viability ([1]; first compound 1 µM) | relative viability ([1]; first compound 31.62 µM) | relative viability ([2]; first compound 1 µM) |
| --- | --- | --- | --- | --- | --- | --- | --- | --- | --- | --- | --- | --- | --- | --- | --- | --- | --- | --- | --- | --- |
| NCI-H1395 | 1.31 | 0.887 | 1.12 | 0.792 | 0.922 | 0.51 | 0.446 | 0.432 | 0.435 | 0.545 | 0.617 | 0.62 | 0.603 | 0.553 | 0.562 | 0.465 | 0.484 |  |  |  |
| NCI-H2347 | 0.979 | 0.971 | 0.966 | 1.04 | 0.922 | 0.592 | 0.629 | 0.575 | 0.65 | 0.557 | 0.415 | 0.442 | 0.365 | 0.145 | 0.753 | 0.408 | 0.6 | 0.468 | 0.386 | 0.754 |
| HCC-15 | 0.884 | 0.872 | 0.831 | 0.836 | 0.848 | 0.77 | 0.75 | 0.766 | 0.682 | 0.667 | 0.731 | 0.765 | 0.625 | 0.754 | 0.673 | 0.458 | 0.715 | 0.514 | 0.516 | 0.691 |
| HCC-44 | 1.08 | 1.02 | 1.01 | 1.09 | 1.01 | 0.955 | 0.961 | 0.963 | 0.947 | 1 | 0.922 | 0.867 | 0.812 | 0.475 | 0.539 | 0.408 | 0.423 | 0.825 | 0.81 | 0.433 |
| PC-14 | 0.294 | 0.288 | 0.402 | 0.278 | 0.332 | 0.326 | 0.368 | 0.275 | 0.4 | 0.24 | 0.513 | 0.515 | 0.134 | 0.674 | 0.645 | 0.495 | 0.563 | 0.651 | 0.191 | 0.764 |
| NCI-H2085 | 0.803 | 0.778 | 0.798 | 0.755 | 0.684 | 0.775 | 0.769 | 0.807 | 0.758 | 0.787 | 0.432 | 0.449 | 0.444 | 0.498 | 0.444 | 0.43 | 0.404 | 0.499 | 0.446 | 0.487 |
| HCC-827 | 0.209 | 0.169 | 0.138 | 0.186 | 0.212 | 0.617 | 0.566 | 0.66 | 0.62 | 0.812 | 0.444 | 0.479 | 0.471 | 0.982 | 0.907 | 0.791 | 1.02 | 0.49 | 0.43 | 1.05 |
| H3255 | 0.272 | 0.241 | 0.244 | 0.263 | 0.239 | 0.615 | 0.565 | 0.566 | 0.572 | 0.639 | 0.304 | 0.298 | 0.304 | 0.612 | 0.497 | 0.35 | 0.491 | 0.292 | 0.296 | 0.432 |
| LOU-NH91 | 0.839 | 0.789 | 0.836 | 0.711 | 0.705 | 0.942 | 0.745 | 0.951 | 0.893 | 0.934 | 0.537 | 0.516 | 0.523 | 0.476 | 0.444 | 0.442 | 0.371 | 0.471 | 0.491 | 0.473 |
| LK-2 | 0.916 |  | 0.776 | 0.745 | 0.625 | 0.65 | 0.609 | 0.762 | 0.712 | 0.545 | 0.644 | 0.687 | 0.782 | 0.599 | 0.589 |  | 0.62 | 0.686 |  | 0.631 |
| EPLC-272H | 0.97 | 0.889 | 0.906 | 0.975 | 0.94 | 0.845 | 0.927 | 0.884 | 0.475 | 1.13 | 0.322 | 0.334 | 0.351 | 0.319 | 0.35 | 0.255 | 0.248 |  | 0.315 |  |
| NCI-H23 | 1.22 | 1.1 | 1.15 | 1.01 | 1.28 | 0.284 | 0.331 | 0.334 | 0.285 | 0.312 | 0.413 | 0.445 | 0.413 | 0.459 | 0.491 | 0.343 | 0.365 | 0.537 | 0.351 | 0.491 |
| NCI-H647 | 1.07 | 1.09 | 1.29 | 1.09 | 1.41 | 0.581 | 0.527 | 0.708 | 0.622 | 0.644 | 0.364 | 0.353 | 0.285 | 0.413 | 0.37 | 0.226 | 0.341 | 0.376 | 0.269 |  |
| LXF-289 | 0.899 | 0.831 | 0.921 | 0.869 | 0.888 | 1.11 | 1.03 | 1.05 | 0.982 | 1 | 0.625 | 0.591 | 0.6 | 0.694 | 0.726 | 0.498 | 0.687 | 0.591 | 0.529 | 0.818 |
